Data reported in patent US20230201232A1, “COMPOSITION FOR AMELIORATION, PREVENTION OR TREATMENT OF HAIR LOSS, COMPRISING CATECHIN 7-O-beta-D-APIOFURANOSIDE AS ACTIVE INGREDIENT” (ANPOLY INC., priority 2020, published 2023).

Experiments:
Bax = test: Western blot, Bax protein expression in H2O2-treated dermal papilla cells; type: cell-based, human; settings: HFDPC, 600 µM H2O2, pretreatment with compound at each concentration; FIG. 4
Method: (§1) HFDPC cells were inoculated in a papilla cell-specific medium (PromoCell, Heidelberg, Germany or Cell biologics Inc, IL, USA) recommended by the supplier, subcultured for 24 to 48 hours at 37° C. and 5% CO2 conditions, and used for experiments.
(§2) After treating the dermal papilla cells (HFDPC) with H2O2 and the sample, the cells were collected at each time zone and the cells were lysed in a cell lysis buffer (RIPA buffer). After the sample was centrifuged at 13,000 g for about 10 to 15 minutes, only the supernatant was taken. The protein concentration of the supernatant was measured by a BCA protein assay kit (Bio-Rad, CA, USA) and then heated at 95° C. for 10 minutes. The prepared sample was electrophoresed on SDS-polyacrylamide gel, transferred to a polyvinylidenedifluoride membrane (PVDF, Bio-rad, CA, USA), blocked with 5% BSA, and reacted with the indicated specific antibody. Then, HRP-conjugated secondary antibody (Santacruz, CA, USA) was reacted with the sample and detected by ECL system (Bio-Rad, MO, USA). As primary antibodies against Bax-1, Bcl-2, PARP-1, and β-actin, Santacruz antibodies (CA, USA) were used.

Bcl-2 = test: Western blot, Bcl-2 protein expression in H2O2-treated dermal papilla cells; type: cell-based, human; settings: HFDPC, 600 µM H2O2, compound at each concentration; FIG. 4
Method: as §1, §2

TGF-β1 = test: ELISA, TGF-β1 expression in H2O2-treated dermal papilla cells; type: cell-based, human; settings: FIG. 5B
Method: as §1
(§3) An ELISA kit was purchased and used to perform immunochemical quantitative analysis related to hair growth promotion and hair loss inhibition. TGF-β and IGF-1 kits were purchased from R&D systems (CA, USA) and used. The test was conducted using each kit according to the supplier’s manual, and the result was derived by converting the amount (pg or µg) of antigen per volume (ml) of cell lysate into a concentration unit.

[1] = system: production of dihydrotestosterone (DHT) from testosterone in dermal papilla cells (HFDPC); test: Dihydrotestosterone production inhibitory activity assay (DHT ELISA); type: cell-based, human; settings: HFDPC treated with 20 nM testosterone; compound at 125 µg/ml, 150 µg/ml, 1100 µg/ml; FIG. 3
Method: as §1
Quantitative analysis of dihydrotestosterone (DHT) was performed by immunochemical quantitative analysis using an ELISA kit. A DHT assay ELISA kit was purchased from Alpco (NH, USA) and used. The experiment using the kit was performed according to the instructions provided by the manufacturer, and the result was derived by converting the amount of antigen (pg/µg) per volume (ml) of cell lysate into a concentration unit.

PARP-1 = test: Western blot, PARP-1 protein expression in H2O2-treated dermal papilla cells; type: cell-based, human; settings: HFDPC, 600 µM H2O2, compound at each concentration; FIG. 4
Method: as §1, §2

IGF-1 = test: ELISA, IGF-1 expression in H2O2-treated dermal papilla cells; type: cell-based, human; settings: FIG. 5A
Method: as §1, §3

[2] = system: dermal papilla cells (HFDPC); settings: H2O2 at 600 µM

| Compound | expression of Bax (Bax) | expression of Bcl-2 (Bcl-2) | expression of TGF-β1 (TGF-β1) | inhibition of DHT production [1] | protein expression level of PARP-1 (PARP-1) | expression of IGF-1 (IGF-1) | apoptosis [2] |
| --- | --- | --- | --- | --- | --- | --- | --- |
| OC[C@@]1(O)COC(Oc2cc(O)c3c(c2)O[C@H](c2ccc(O)c(O)c2)[C@@H](O)C3)[C@@H]1O (stereo in doubt) [catechin 7-O-β-D-apiofuranoside] | expression of Bax was significantly reduced in a concentration-dependent manner | significantly increased the expression of Bcl-2 in a concentration-dependent manner | inhibit the expression of TGF-β1 in a concentration-dependent manner | effect of inhibiting DHT production was statistically significant in a concentration-dependent manner | significantly inhibited the protein expression level of PARP-1 in a concentration-dependent manner | promote the expression of IGF conducive to hair growth in a concentration-dependent manner | – |
| OO [Hydrogen peroxide (H2O2), Hydrogen peroxide] | – | – | – | – | – | – | 50% |
